PMC8518114, “Safety, tolerability and pharmacokinetics of emodepside, a potential novel treatment for onchocerciasis (river blindness), in healthy male subjects” (British Journal of Clinical Pharmacology, 2021)
Where two headings read alike, the source gives them in different places.

Assay: Plasma pharmacokinetics of emodepside, multiple ascending dose (MAD) study
Format: in vivo, human
Conditions: for AUC 0–24 /D / C max /D / AUC last /D / t ½ 0–24 (dominant half-life) / AUC 0–24 / Cmax: mean (CV%); for t ½ 0–24 (dominant half-life): Day 10, terminal slope of log concentration–time (0–24 hr) curve; for Cmax/Ctrough ratio: after the last dose on Day 10; for MRT: Day 1, mean (CV%); for AUC 0–24 / Cmax: HPLC-MS/MS; for CL/F: read-out: CL ss /F (converted); for Vd/F: read-out: V z /F; for half-life: read-out: Terminal t ½ (converted)
Experimental: Emodepside and placebo were supplied as a LSF and a standard immediate‐release (IR) tablet. The LSF was a 0.1% (w/v) solution containing 1 mg emodepside/mL. Conventional IR tablets containing emodepside in crystalline form were supplied in 2 dosage strengths, 5 and 20 mg, for the single ascending dose (SAD) study.
Blood samples (5 mL) were collected by venepuncture or via a cannula into EDTA tubes and immediately placed on ice. Samples were centrifuged at 1500 g for 10 minutes at 4°C. The plasma was aliquoted into 2 polypropylene tubes, which were stored at −20°C. Blood samples for PK analysis were taken at the following time points: • SAD: predose and 0.5, 1, 1.5, 2, 2.5, 3, 4, 5, 6, 8, 12, 24, 36, 48, 72, 96, 120, 144 and 168 hours, and 21 days postdose (cohort 1–9) or predose and 0.5, 1, 3, 6, 8, 12, 24, 36, 48, 72, 96, 120, 144 and 168 hours, and 10, 14, 18 and 21 days postdose (cohort 10). • Multiple ascending dose (MAD), as below: • on Day 1: predose and at 0.25, 0.5, 1, 1.5, 2, 2.5, 3, 4, 6, 8, 12 and 15 hours postdose • on Days 2–9: before the morning dose • on Day 10: before and at 0.25, 0.5, 1, 1.5, 2, 2.5, 3, 4, 6, 8, 12 and 15 hours • on Days 11, 12, 13, 14, 15, 18, 21, 24 and 30.
Emodepside plasma concentrations were determined by a validated high performance liquid chromatography–tandem mass spectrometry assay, using a Alltima C18 5 μm 150 mm x 2.1 mm column and an Applied Biosystems API4000 Turbo Ion Spray detector using positive ion mode. Analyst version 1.3.2 or 1.6.3 software, obtained from AB Sciex UK Ltd, Warrington, UK was used for chromatogram data analysis and quantitative calculations. Deuterated emodepside‐D16 was used as the internal standard. The lower limit of quantitation for emodepside in plasma was 1 ng/mL. Values below this limit were not used to calculate the PK parameters, except values that were below the limit of quantification before Cmax, which were set to zero.
The highest observed plasma concentration (Cmax) was determined directly from concentration–time data, as was the time to reach maximum plasma concentration (tmax). The area under the plasma concentration–time curve from time zero (predose) to the time of last quantifiable concentration (AUC0‐last) was calculated using the linear‐log trapezoidal rule. Elimination half‐life (t1/2) was calculated by the equation ln2/λz.
Statistical analyses were performed using SAS version 9.3 (Cary, NC, USA). Demographic data and baseline characteristics were listed and summarised. […] PK parameters were derived from plasma concentration vs. time data using a noncompartmental analysis in Phoenix WinNonlin version 7 (Certara Inc., Princeton, NJ, USA). Plasma concentration vs. time data and PK parameters were listed, and summarised by treatment, using descriptive statistics. Mean concentrations were calculated only if at least ⅔ of the individual concentrations were above the lower limit of quantification. […] Planned sampling times were used to summarise plasma‐concentration data; actual sampling times were used in the derivation of PK parameters.

[1] = 5 mg OD LSF fasting, Day 1, dose-normalised
[2] = 5 mg OD LSF fasting, Day 10, dose-normalised
[3] = 10 mg BID LSF fasting, Day 1, dose-normalised
[4] = 10 mg BID LSF fasting, Day 10, dose-normalised
[5] = 10 mg OD LSF fasting, Day 1, dose-normalised
[6] = 10 mg OD LSF fasting, Day 10, dose-normalised
[7] = human, plasma, po, 5 mg, 5 mg OD LSF fasting, Day 1, plasma
[8] = human, plasma, po, 5 mg, 5 mg OD LSF fasting, Day 10, mean (CV%)
[9] = human, plasma, po, 5 mg, 5 mg OD LSF fasting, Day 10, plasma
[10] = human, plasma, po, 10 mg, 10 mg BID LSF fasting, Day 1, plasma
[11] = human, plasma, po, 10 mg, 10 mg BID LSF fasting, Day 10, mean (CV%)
[12] = human, plasma, po, 10 mg, 10 mg BID LSF fasting, Day 10, plasma
[13] = human, plasma, po, 10 mg, 10 mg OD LSF fasting, Day 1, plasma
[14] = human, plasma, po, 10 mg, 10 mg OD LSF fasting, Day 10, mean (CV%)
[15] = human, plasma, po, 10 mg, 10 mg OD LSF fasting, Day 10, plasma

## CC(C)C[C@H]1C(=O)O[C@H](Cc2ccc(N3CCOCC3)cc2)C(=O)N(C)[C@@H](CC(C)C)C(=O)O[C@H](C)C(=O)N(C)[C@@H](CC(C)C)C(=O)O[C@H](Cc2ccc(N3CCOCC3)cc2)C(=O)N(C)[C@@H](CC(C)C)C(=O)O[C@H](C)C(=O)N1C [emodepside]
[1]
  AUC 0–24 /D: 115 (19.7) [h.ng/mL]/mg
  C max /D: 18.8 (17.8) [ng/mL]/mg
5 mg OD LSF fasting, Day 1, median (range)
  Tmax: 1.00 (1.00–1.07) h
[2]
  AUC 0–24 /D: 338 (31.3) [h.ng/mL]/mg
  AUC last /D: 3872 (29.9) [h.ng/mL]/mg
  C max /D: 29.9 (17.9) [ng/mL]/mg
5 mg OD LSF fasting, Day 10, mean (CV%)
  λ z: 0.00166 (42.6) 1/h
5 mg OD LSF fasting, Day 10, mean (CV%), geometric mean
  Terminal t ½: 419 (42.6) h
5 mg OD LSF fasting, Day 10, median (range)
  Tmax: 1.00 (1.00–1.50) h
5 mg OD LSF fasting
  t ½ 0–24 (dominant half-life): 26.9 (52.4) h
[3]
  AUC 0–24 /D: 71.4 (26.5) [h.ng/mL]/mg
  C max /D: 16.0 (20.4) [ng/mL]/mg
10 mg BID LSF fasting, Day 1, median (range)
  Tmax: 1.00 (1.00–1.58) h
[4]
  AUC 0–24 /D: 490 (35.8) [h.ng/mL]/mg
  AUC last /D: 5955 (29.1) [h.ng/mL]/mg
  C max /D: 34.9 (27.1) [ng/mL]/mg
10 mg BID LSF fasting, Day 10, mean (CV%)
  λ z: 0.00137 (56.9) 1/h
10 mg BID LSF fasting
  t ½ 0–24 (dominant half-life): 33.2 (55.0) h
10 mg BID LSF
  Cmax/Ctrough ratio: 1.9
[5]
  AUC 0–24 /D: 113 (32.7) [h.ng/mL]/mg
  C max /D: 18.6 (21.3) [ng/mL]/mg
[6]
  AUC 0–24 /D: 349 (44.2) [h.ng/mL]/mg
  AUC last /D: 4065 (43.5) [h.ng/mL]/mg
  C max /D: 28.7 (39.7) [ng/mL]/mg
10 mg OD LSF fasting, Day 10, mean (CV%)
  λ z: 0.00154 (30.6) 1/h
10 mg OD LSF fasting, Day 10, median (range)
  Tmax: 1.25 (1.00–2.00) h
10 mg OD LSF fasting
  t ½ 0–24 (dominant half-life): 18.4 (30.0) h
10 mg OD LSF
  Cmax/Ctrough ratio: 3.0
507 hours after the last morning dose, LLOQ 1 ng/mL
  Emodepside levels at the final sampling timepoint: still quantifiable in all subjects
LSF
  Geometric mean Cmax on Day 10, 10 mg BID group vs 10 mg OD group: 1.2 fold
human, plasma, po, 5 mg, 5 mg OD LSF fasting
  MRT: 7.28 h
[7]
  AUC 0–24: 574 ng·h/mL
  Cmax: 93.8 ng/mL
[8]
  CL/F: 49.3 mL/min
  Vd/F: 1790 L
[9]
  AUC 0–24: 1690 ng·h/mL
  Cmax: 149 ng/mL
human, plasma, po, 10 mg, 10 mg BID LSF fasting
  MRT: 10.8 h
[10]
  AUC 0–24: 1430 ng·h/mL
  Cmax: 160 ng/mL
human, plasma, po, 10 mg, 10 mg BID LSF fasting, Day 10, mean (CV%), geometric mean
  half-life: 508 h
[11]
  CL/F: 59.3 mL/min
  Vd/F: 2610 L
human, plasma, po, 10 mg, 10 mg BID LSF fasting, Day 10, median (range), read-out: t max
  Tmax: 1.5 h
[12]
  AUC 0–24: 4900 ng·h/mL
  Cmax: 349 ng/mL
human, plasma, po, 10 mg, 10 mg OD LSF fasting
  MRT: 7 h
human, plasma, po, 10 mg, 10 mg OD LSF fasting, Day 1, median (range), read-out: t max
  Tmax: 1.25 h
[13]
  AUC 0–24: 1140 ng·h/mL
  Cmax: 186 ng/mL
human, plasma, po, 10 mg, 10 mg OD LSF fasting, Day 10, mean (CV%), geometric mean
  half-life: 450 h
[14]
  CL/F: 47.8 mL/min
  Vd/F: 1860 L
[15]
  AUC 0–24: 3490 ng·h/mL
  Cmax: 287 ng/mL
